System: HCV genotype 1b replicon in Huh 7 cells
Experiment: HCV replicon assay (luciferase readout, 1b_Huh-Luc/Neo-ET cell line)
Assay type: cell-based
Settings: Hepatitis C virus, Huh-7, 72 h, read-out: Inhibition of HCV genotype 1b, Table 4, 72 h incubation
Procedure, shortened: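 Huh 7 cells carrying a bicistronic genotype 1b luciferase replicon treated with compound in triplicate for 72 h. Replicon level read as luciferase activity (Bright-Glo), expressed as % of control; EC50 from a sigmoidal Hill-slope fit, repeated several times.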

`O=C(N[C@@H](C(=O)N1CCC[C@H]1c1nc2ccc(-c3ccc(-c4ccc5nc([C@@H]6CCCN6C(=O)[C@H](NC(=O)C6CC6)c6ccccc6)[nH]c5c4)cc3)cc2[nH]1)c1ccccc1)C1CC1` [compound 930] and `COC(=O)N[C@H](C(=O)N[C@@H](C)c1nc2ccc(-c3ccc(-c4ccc5nc([C@H](C)NC(=O)[C@@H](NC(=O)OC)C(C)C)[nH]c5c4)cc3)cc2[nH]1)C(C)C` [compound 932] cannot be ordered by EC50: less than 1 nM for the first, less than 1 nM for the second.

Same assay, conditions: Hepatitis C virus, Huh-7, 72 h, read-out: Inhibition of HCV genotype 1b, Table 5, 72 h incubation

First: CC(C)[C@H](NC(=O)N1CCOCC1)C(=O)N1CCC[C@H]1c1ncc(-c2ccc(C34CCC(c5cnc([C@@H]6CCCN6C(=O)[C@@H](NC(=O)N6CCOCC6)C(C)C)[nH]5)(CC3)CC4)cc2)[nH]1 [compound 628]
Second: COC(=O)N[C@H](C(=O)N1CCC[C@H]1c1ncc(C23CCC(c4ccc(-c5cnc([C@@H]6CCCN6C(=O)[C@@H](NC(=O)N6CCOCC6)C(C)C)[nH]5)cc4)(CC2)CC3)[nH]1)C(C)C [compound 645]
The EC50 of the first is higher: greater than 1000 nM for the first, less than 1 nM for the second. The second is the more potent here.

Going from `CC(C)[C@H](NC(=O)N1CC[C@@H](O)C1)C(=O)N1CCC[C@H]1c1ncc(-c2ccc(C34CCC(c5cnc([C@@H]6CCCN6C(=O)[C@@H](NC(=O)N6CC[C@@H](O)C6)C(C)C)[nH]5)(CC3)CC4)cc2)[nH]1` [compound 629] to `CC(C)[C@H](NC(=O)N1CC[C@H](O)C1)C(=O)N1CCC[C@H]1c1ncc(-c2ccc(C34CCC(c5cnc([C@@H]6CCCN6C(=O)[C@@H](NC(=O)N6CC[C@H](O)C6)C(C)C)[nH]5)(CC3)CC4)cc2)[nH]1` [compound 635], the EC50 falls from greater than 1000 nM to less than 1 nM.

Going from `CC(C)[C@H](NC(=O)N1CCC(O)CC1)C(=O)N1CCC[C@H]1c1ncc(-c2ccc(C34CCC(c5cnc([C@@H]6CCCN6C(=O)[C@@H](NC(=O)N6CCC(O)CC6)C(C)C)[nH]5)(CC3)CC4)cc2)[nH]1` [compound 630] to `COC(=O)N[C@H](C(=O)N1CCC[C@H]1c1ncc(C23CCC(c4ccc(-c5cnc([C@@H]6CCCN6C(=O)[C@@H](NC(=O)N6CCC(O)CC6)C(C)C)[nH]5)cc4)(CC2)CC3)[nH]1)C(C)C` [compound 649], the EC50 falls from greater than 1000 nM to less than 1 nM. The second is the more potent here.

First: COC(=O)N[C@H](C(=O)N1CCC[C@H]1c1ncc(-c2ccc(C34CCC(c5cnc([C@@H]6CCCN6C(=O)[C@H](NC(=O)C6CC6)c6ccccc6)[nH]5)(CC3)CC4)cc2)[nH]1)C(C)C [compound 631]
Second: COC(=O)N[C@@H](C(=O)N1CCC[C@H]1c1ncc(-c2ccc(C34CCC(c5cnc([C@@H]6CCCN6C(=O)[C@@H](NC(=O)N6CCN(C)CC6)C(C)C)[nH]5)(CC3)CC4)cc2)[nH]1)c1ccccc1 [compound 637]
The EC50 of the first is lower: less than 1 nM for the first, 1 to 9.9 nM for the second. The first is the more potent here.

First: COC(=O)N[C@H](C(=O)N1CCC[C@H]1c1ncc(-c2ccc(C34CCC(c5cnc([C@@H]6CCCN6C(=O)[C@@H](c6ccccc6)N6CCCCC6)[nH]5)(CC3)CC4)cc2)[nH]1)C(C)C [compound 632]
Second: COC(=O)N[C@@H](C(=O)N1CCC[C@H]1c1ncc(-c2ccc(C34CCC(c5cnc([C@@H]6CCCN6C(=O)[C@@H](NC(=O)N6CCC(=O)CC6)C(C)C)[nH]5)(CC3)CC4)cc2)[nH]1)c1ccccc1 [compound 644]
The EC50 of the first is lower: less than 1 nM for the first, 1 to 9.9 nM for the second. The first is the more potent here.

Going from `CC(C)[C@H](NC(=O)N1CCC(C)(O)CC1)C(=O)N1CCC[C@H]1c1ncc(-c2ccc(C34CCC(c5cnc([C@@H]6CCCN6C(=O)[C@@H](NC(=O)N6CCC(C)(O)CC6)C(C)C)[nH]5)(CC3)CC4)cc2)[nH]1` [compound 634] to `CC(C)[C@H](NC(=O)N1CCCCC1)C(=O)N1CCC[C@H]1c1ncc(-c2ccc(C34CCC(c5cnc([C@@H]6CCCN6C(=O)[C@@H](NC(=O)N6CCCCC6)C(C)C)[nH]5)(CC3)CC4)cc2)[nH]1` [compound 639], the EC50 rises from less than 1 nM to greater than 1000 nM.

First: CC(C)[C@H](NC(=O)N1CCC(=O)CC1)C(=O)N1CCC[C@H]1c1ncc(-c2ccc(C34CCC(c5cnc([C@@H]6CCCN6C(=O)[C@@H](NC(=O)N6CCC(=O)CC6)C(C)C)[nH]5)(CC3)CC4)cc2)[nH]1 [compound 638]
Second: COC(=O)N[C@H](C(=O)N1CCC[C@H]1c1ncc(C23CCC(c4ccc(-c5cnc([C@@H]6CCCN6C(=O)[C@@H](NC(=O)N6CCC(=O)CC6)C(C)C)[nH]5)cc4)(CC2)CC3)[nH]1)C(C)C [compound 650]
The EC50 of the first is higher: greater than 1000 nM for the first, 1 to 9.9 nM for the second.

Compared with `COC(=O)N[C@H](C(=O)N1CCC[C@H]1c1ncc(-c2ccc(C34CCC(c5cnc([C@@H]6CCCN6C(=O)[C@@H](NC(=O)N6CCCCC6)C(C)C)[nH]5)(CC3)CC4)cc2)[nH]1)C(C)C` [compound 640], `COC(=O)N[C@H](C(=O)N1CCC[C@H]1c1ncc(C23CCC(c4ccc(-c5cnc([C@@H]6CCCN6C(=O)[C@@H](NC(=O)N6CCCCC6)C(C)C)[nH]5)cc4)(CC2)CC3)[nH]1)C(C)C` [compound 648] is lower in EC50: greater than 1000 nM for the first, 10 to 999 nM for the second.

Compared with `COC(=O)N[C@H](C(=O)N1CCC[C@H]1c1ncc(-c2ccc(C34CCC(c5cnc([C@@H]6CCCN6C(=O)[C@@H](NC(=O)C6CCOCC6)C(C)C)[nH]5)(CC3)CC4)cc2)[nH]1)C(C)C` [compound 641], `COC(=O)N[C@H](C(=O)N1CCC[C@H]1c1ncc(C23CCC(c4ccc(-c5cnc([C@@H]6CCCN6C(=O)[C@@H](NC6CCOCC6)C(C)C)[nH]5)cc4)(CC2)CC3)[nH]1)C(C)C` [compound 914] is lower in EC50: greater than 1000 nM for the first, 10 to 999 nM for the second.

`COC(=O)N[C@H](C(=O)N1CCC[C@H]1c1ncc(C23CCC(c4ccc(-c5cnc([C@@H]6CCCN6C(=O)[C@@H](NC(=O)N6CCN(C)CC6)C(C)C)[nH]5)cc4)(CC2)CC3)[nH]1)C(C)C` [compound 646] and `COC(=O)N[C@H](C(=O)N1CCC[C@H]1c1ncc(C23CCC(c4ccc(-c5cnc([C@@H]6CCCN6C(=O)[C@@H](NC(=O)C6CCN(C)CC6)C(C)C)[nH]5)cc4)(CC2)CC3)[nH]1)C(C)C` [compound 647] fall in the same range of EC50: 10 to 999 nM for the first, 10 to 999 nM for the second.

First: COC(=O)N[C@H](C(=O)N1CCC[C@H]1c1ncc(C23CCC(c4ccc(-c5cnc([C@@H]6CCCN6C(=O)[C@@H](NC(=O)N6CC[C@H](O)C6)C(C)C)[nH]5)cc4)(CC2)CC3)[nH]1)C(C)C [compound 651]
Second: COC(=O)N[C@H](C(=O)N1CCC[C@H]1c1ncc(C23CCC(c4ccc(-c5cnc([C@@H]6CCCN6C(=O)[C@@H](NC(=O)N6CCC[C@H]6CO)C(C)C)[nH]5)cc4)(CC2)CC3)[nH]1)C(C)C [compound 652]
The EC50 of the first is higher: 1 to 9.9 nM for the first, less than 1 nM for the second.

`COC(=O)N[C@H](C(=O)N1CCC[C@H]1c1ncc(-c2ccc(C34CCC(c5cnc([C@@H]6CCCN6C(=O)[C@@H](NC(=O)OC)C6CC6)[nH]5)(CC3)CC4)cc2)[nH]1)C1CC1` [compound 908] and `COC(=O)N[C@@H](C)C(=O)N1CCC[C@H]1c1ncc(-c2ccc(C34CCC(c5cnc([C@@H]6CCCN6C(=O)[C@H](C)NC(=O)OC)[nH]5)(CC3)CC4)cc2)[nH]1` [compound 916] cannot be ordered by EC50: less than 1 nM for the first, less than 1 nM for the second.

First: COC(=O)N[C@H](C(=O)N1CCC[C@H]1c1ncc(-c2ccc(C34CCC(c5cnc([C@@H]6CCCN6C(=O)[C@@H](NC(=O)OC)[C@H](C)O)[nH]5)(CC3)CC4)cc2)[nH]1)[C@H](C)O [compound 909]
Second: COC(=O)N[C@H](C)C(=O)N1CCC[C@H]1c1ncc(-c2ccc(C34CCC(c5cnc([C@@H]6CCCN6C(=O)[C@@H](C)NC(=O)OC)[nH]5)(CC3)CC4)cc2)[nH]1 [compound 917]
The EC50 of the first is higher: 1 to 9.9 nM for the first, less than 1 nM for the second. The second is the more potent here.

`CCC(CC)[C@H](NC(=O)OC)C(=O)N1CCC[C@H]1c1ncc(-c2ccc(C34CCC(c5cnc([C@@H]6CCCN6C(=O)[C@@H](NC(=O)OC)C(CC)CC)[nH]5)(CC3)CC4)cc2)[nH]1` [compound 910] and `COC(=O)N[C@H](C(=O)N1CCC[C@H]1c1ncc(-c2ccc(C34CCC(c5cnc([C@@H]6CCCN6C(=O)[C@H](C(C)C)N(C)C(=O)OC)[nH]5)(CC3)CC4)cc2)[nH]1)C(C)C` [compound 911] cannot be ordered by EC50: less than 1 nM for the first, less than 1 nM for the second.

`COC(=O)N[C@H](C(=O)N1CCC[C@H]1c1ncc(C23CCC(c4ccc(-c5cnc([C@@H]6CCCN6C(=O)[C@H](C(C)C)N(C)C(=O)OC)[nH]5)cc4)(CC2)CC3)[nH]1)C(C)C` [compound 912] and `COC(=O)N(C)[C@H](C(=O)N1CCC[C@H]1c1ncc(-c2ccc(C34CCC(c5cnc([C@@H]6CCCN6C(=O)[C@H](C(C)C)N(C)C(=O)OC)[nH]5)(CC3)CC4)cc2)[nH]1)C(C)C` [compound 913] cannot be ordered by EC50: less than 1 nM for the first, less than 1 nM for the second.

`COC(=O)N[C@H](C(=O)N1CCC[C@H]1c1ncc(C23CCC(c4ccc(-c5cnc([C@@H]6CCCN6C(=O)[C@H](NC6CCOCC6)C(C)C)[nH]5)cc4)(CC2)CC3)[nH]1)C(C)C` [compound 915] and `COC(=O)N[C@H](C(=O)N1CCC[C@H]1c1ncc(-c2ccc(C34CCC(c5cnc([C@@H]6CCCN6C(=O)[C@@H](Nc6ncccn6)C(C)C)[nH]5)(CC3)CC4)cc2)[nH]1)C(C)C` [compound 918] cannot be ordered by EC50: less than 1 nM for the first, less than 1 nM for the second.

`CC(C)[C@@H](C(=O)N1CCC[C@H]1c1ncc(-c2ccc(C34CCC(c5cnc([C@@H]6CCCN6C(=O)[C@H](C(C)C)N(C)C)[nH]5)(CC3)CC4)cc2)[nH]1)N(C)C` [compound 919] and `CC(C)[C@H](C(=O)N1CCC[C@H]1c1ncc(-c2ccc(C34CCC(c5cnc([C@@H]6CCCN6C(=O)[C@@H](C(C)C)N(C)C)[nH]5)(CC3)CC4)cc2)[nH]1)N(C)C` [compound 920] fall in the same range of EC50: 10 to 999 nM for the first, 10 to 999 nM for the second.

Same assay, conditions: read-out: Inhibition of HCV genotype 1b, Table 5, 72 h incubation

`COC(=O)N[C@H](C(=O)N1CCC[C@H]1c1ncc(-c2ccc(C34CCC(c5cnc([C@@H]6CCCN6C(=O)[C@@H](NC(=O)N6CCC(O)CC6)C(C)C)[nH]5)(CC3)CC4)cc2)[nH]1)C(C)C` [compound 633] and `COC(=O)N[C@H](C(=O)N1CCC[C@H]1c1ncc(-c2ccc(C34CCC(c5cnc([C@@H]6CCCN6C(=O)[C@@H](NC(=O)N6CCOCC6)C(C)C)[nH]5)(CC3)CC4)cc2)[nH]1)C(C)C` [compound 636] cannot be ordered by EC50: less than 1 nM for the first, less than 1 nM for the second.

`COC(=O)N[C@@H](C(=O)N1CCC[C@H]1c1ncc(-c2ccc(C34CCC(c5cnc([C@@H]6CCCN6C(=O)[C@@H](NC(=O)N6CCN(C)CC6)C(C)C)[nH]5)(CC3)CC4)cc2)[nH]1)c1ccccc1` [compound 642] and `COC(=O)N[C@@H](C(=O)N1CCC[C@H]1c1ncc(-c2ccc(C34CCC(c5cnc([C@@H]6CCCN6C(=O)[C@@H](NC(=O)N6CCOCC6)C(C)C)[nH]5)(CC3)CC4)cc2)[nH]1)c1ccccc1` [compound 643] fall in the same range of EC50: 1 to 9.9 nM for the first, 1 to 9.9 nM for the second.
